According to patent US20200345746A1, “Oxazine Derivative for Use in the Prevention of Alzheimer's Disease in at Risk Patents” (Novartis AG, priority 2016, published 2020):

Tested on: amyloid plaques
Experiment: Plaque histology in APP23 mice (plaque numbers and plaque area)
Format: in vivo, mouse
Conditions: for Number of large plaques / Number of medium plaques / Number of small plaques: normalized to total area (1000000 * mean ± SEM)
Protocol: Amyloid plaques were stained using a rabbit anti-Aβ primary antibody which recognizes the C-terminal part of the amyloid peptide (the antibody was raised as described in Schrader-Fischer G, Paganetti P A, 1996; Schrader-Fischer G et al., 1997). Activated astrocytes were detected using a commercial rabbit anti-GFAP (reference Z0334 from Dako Schweiz GmbH, Baar, Switzerland).
All stainings were performed using the fully automated instrument Ventana Discovery® Ultra (Roche Diagnostics Schweiz AG, Rotkreuz, Switzerland). All chemicals were provided by Roche Diagnostic.
All study animals were used and brain tissue sections of 3 micrometers were freshly cut and collected on SuperFrost+ slides. The tissues sections were de-paraffinized and rehydrated under solvent-free conditions (EZprep solution) followed by antigen retrieval (demasking) performed by heat retrieval cycles for 32 min in an EDTA based buffer (CC1 solution). Subsequently, slides were blocked for 4 min using the DISCOVERY Inhibitor (reference 07017944001 (Roche)). The primary antibody diluted at 1/20,000 in antibody diluent was manually added on tissue sections and incubated for 1h at room temperature. A short post-fixation (glutaraldehyde at 0.05%) was performed before applying the multimer UltraMap-anti Rabbit HRP ready to use antibody (reference 05269717001) for 16 min.
Detection was performed using the DISCOVERY FITC® following the manufacturer's recommendations. Slides were then heat denaturated at 92° C. for 20 min before a manual application of the second primary antibody (anti-GFAP diluted at 1/2,000) and incubated for 1 h. UltraMap-anti-Rabbit HRP antibody was used again for 20 min to detect GFAP in combination with the DISCOVERY Rhodamine kit (reference 07259883001).
The slides were washed and mounted using Prolong® Gold antifade reagent (reference P36931, ThermoFisher, Switzerland) and further scanned with the Hamamatsu slide scanner instrument (NanoZoomer 2.0 HT, scanning software NDP-Scan Vers. 2.5, Hamamatsu Photonics France, Swiss Office, Solothurn, Switzerland) at the 40× objective. The scanning settings were as follows: the exposure time with the DAPI filter was set at 57 ms as well as for the FITC filter. The exposure time for the TRITC filter (detection of Rhodamine) was set at 14.2 ms.
For the quantitative plaque evaluation based on image analysis, a proprietary image analysis platform (ASTORIA, Automated Stored Image Analysis) was developed based on MS Visual Studio 2010 and many functions from Matrox MIL V9 libraries (Matrox Inc, Quebec, Canada).
For the beta-amyloid plaque and neuroinflammation analysis, the following sequence of steps was performed: • Slides were scanned with Hamamatsu Nanozoomer at 40× magnification. For each fluorescence labelling (DAPI, FITC and TRITC), a separate image was created • Manually outline ROIs (regions of interest) for defining cortex in brain sections for Aβ plaque assessment on the green FITC channel image, then use the resulting outline also for the other two channel images (copy resulting xml files) • Run the in-house developed ImageScope (V12.1.0.5029, Aperio Inc., USA) plug-in for creation and export of *.tif image tiles (at 10× magnification) for each of the 3 fluorescence channels
Image Batch Processing: • Obtain the combined true color image (DAPI, FITC, TRITC) for each section through accessing each individual fluorescence channel image • Segmentation of valid sample (within outlined ROI) from black unstained background • Apply adaptive thresholding technique for segmentation of objects in green channel image […]

Compound: C[C@@]1(c2nc(NC(=O)c3ncc(C(F)(F)F)cc3Cl)ccc2F)CO[C@@](C)(C(F)(F)F)C(N)=N1 [Compound 1, N-(6-((3R,6R)-5-amino-3,6-dimethyl-6-(trifluoromethyl)-3,6-dihydro-2H-1,4-oxazin-3-yl)-5-fluoropyridin-2-yl)-3-chloro-5-(trifluoromethyl)picolinamide]
- Number of large plaques (APP23, 0.03 g/kg food): 0.09 ± 0.02
- Number of medium plaques (APP23, 0.03 g/kg food): 1.06 ± 0.14
- Number of small plaques (APP23, 0.03 g/kg food): 10.06 ± 1.55
- Number of large plaques, change vs vehicle (APP23, 0.03 g/kg vs vehicle): −29.9%
- Number of medium plaques, change vs vehicle (APP23, 0.03 g/kg vs vehicle): −22.9%
- Number of small plaques, change vs vehicle (APP23, 0.03 g/kg vs vehicle): −30.3%
- Total plaque area, change vs vehicle (APP23, 0.03 g/kg vs vehicle): −26.4%
- Number of large plaques (APP23, 0.3 g/kg food): 0.04 ± 0.01
- Number of medium plaques (APP23, 0.3 g/kg food): 0.58 ± 0.10
- Number of small plaques (APP23, 0.3 g/kg food): 5.78 ± 0.75
- Number of large plaques, change vs vehicle (APP23, 0.3 g/kg vs vehicle): −68.2%
- Number of medium plaques, change vs vehicle (APP23, 0.3 g/kg vs vehicle): −57.9%
- Number of small plaques, change vs vehicle (APP23, 0.3 g/kg vs vehicle): −60.0%
- Total plaque area, change vs vehicle (APP23, 0.3 g/kg vs vehicle): −59.5%
- reduction of plaque load (immunohistochemistry) (APP23, high dose group): ~70%
- reduction of the increase in plaques and total plaque area (APP23, high dose treatment group): about 60%
- reduction of plaque load (immunohistochemistry) (APP23, low dose group): ~20%
- reduction of the increase in plaques and total plaque area (APP23, low dose treatment group): about 25%
